Patent US8664276B2, “Stilbene analogs and methods of treating cancer” (University of Kentucky Research Foundation, priority 2011, dated 2014)
Entries after “also recorded” stand apart in the source; their conditions may differ.

Key:
[1] = system: Wnt target genes, Axin2 and c-Myc; test: Western blot of Wnt target proteins in LS174 CRC cells; assay type: cell-based
Protocol: Western blot. Western blots were performed using the following antibodies: β-catenin (Sigma, C2206), c-Myc (Epitomics, 1472-1), Axin2 (Cell Signaling, 2151), β-Actin (Sigma, A1978), TCF4 (Epitomics, 2114-1) and pygopus2 (Santa Cruz, sc-74878), Cyclin D1 (Cell signaling, 2926).
Cyclin B1 levels were decreased, whereas p21^WAF1/CIP1 levels increased, consistent with the fact that p21^WAF1/CIP1 expression is repressed by c-Myc. β-catenin levels were not affected by resveratrol. Next, the mRNA levels of β-catenin target genes were analyzed using RT-PCR. Expression of survivin, Lgr5, CD44, and c-Myc were decreased in resveratrol-treated cells.
A panel of stilbene analogs was designed and synthesized (FIGS. 2, 3, 5A and 6A). […] However, the solubility of 4d was poor and it was not effective below 10 μM concentrations (data not shown). To improve its solubility and activity, compound 4d was modified with 2′-fluoro 4e, 3′-fluoro 4f and 4′-fluoro 4g substituents (FIG. 5D). Both compounds 4e and 4f had good activity at 10 μM, (E)-4-(2-fluorostyryl)-N,N-dimethylaniline.
(§1) Western blot and cell proliferation assay. The activity of fluorinated N,N-dialkylaminostilbenes (FIDAS or FIDAS agents) on Wnt signaling activity in cancer cells were analyzed by Western blot with antibodies against Wnt target genes, such as c-Myc, Axin2. The effects of FlDAS agents on cancer cell growth were analyzed using Cell Viability Analyzer (Beckman Coulter, Vi-Cell XR). These assays have been described previously (see Zhang et al., J. of Med. Chem. 54, 1288-1297 (2011)).

Wnt signaling = test: TopFlash luciferase reporter assay in HEK293T cells; assay type: cell-based
Protocol: Luciferase and cell proliferation assay. HEK293T cells were transiently transfected in a 12-well plate with 0.2 μg of the Super8xTOPFlash reporter and 0.05 μg of Renilla luciferase reporter. Culture medium was changed after 12 h. After 6 h, cells were treated with DMSO or Wnt inhibitors for 12 h, and then treated with 25 mM LiCl or Wnt conditioned medium. After 12 h, cells were harvested and luciferase activity measured by Dual-luciferase Reporter Assay System (Promega, Madison Wis.). All conditions were done in triplicate and each experiment was carried out at least two times. For cell proliferation assay, CRC cells were treated with DMSO or inhibitors for 2d and 4d. The cell numbers and viability were analyzed by Vi-Cell Cell Viability Analyzer. To identify Wnt pathway inhibitors for CRC prevention and treatment, a number of anti-cancer agents from plants were screened using the TopFlash reporter assay. The TopFlash reporter was transfected into HEK293T cells, and the cells were treated with Wnt3A-conditioned medium in order to activate the luciferase reporter. […] To determine if resveratrol regulates β-catenin degradation, the cells were treated with 25 mM LiCl, which inhibits GSK-3 and stabilizes β-catenin. In this assay, LiCl activated the reporter more strongly than Wnt3A conditioned medium. […] Emodin is an anti-cancer agent from plants; it exists in many unpurified resveratrol products. Emodin had no effect on Wnt signaling. See Zhang et al., J. of Med. Chem. 54, 1288-1297 (2011).

LS174 CRC cells = test: CRC cell proliferation assay (Vi-Cell); assay type: cell-based; conditions: for colon cancer cell proliferation, effectiveness versus resveratrol and 4r: FIG. 14
Protocol: Luciferase and cell proliferation assay. HEK293T cells were transiently transfected in a 12-well plate with 0.2 μg of the Super8xTOPFlash reporter and 0.05 μg of Renilla luciferase reporter. Culture medium was changed after 12 h. After 6 h, cells were treated with DMSO or Wnt inhibitors for 12 h, and then treated with 25 mM LiCl or Wnt conditioned medium. After 12 h, cells were harvested and luciferase activity measured by Dual-luciferase Reporter Assay System (Promega, Madison Wis.). All conditions were done in triplicate and each experiment was carried out at least two times. For cell proliferation assay, CRC cells were treated with DMSO or inhibitors for 2d and 4d. The cell numbers and viability were analyzed by Vi-Cell Cell Viability Analyzer.
as §1

liver cancer cells = test: Liver cancer cell proliferation; assay type: cell-based; conditions: FIG. 15
Protocol: as §1
As previously shown, several metabolites of the halogenated stilbenes of the present disclosure were synthesized (Example 2 and FIG. 3). In this study, the effects of some of these metabolites on cell proliferation were studied.

Row | Structure (SMILES) | melting point | Wnt inhibitory activity in Western blot, qualitative or relative to a comparator ([1]; CRC cells) | also measured
1 | CN1CCN(c2ccc(/C=C/c3ccccc3F)cc2)CC1 [4j, (E)-1-(4-(2-Fluorostyryl)phenyl)-4-methylpiperazine] | 142 to 144 °C | – | –
2 | CN(C)c1ccc(/C=C/c2cccc(F)c2)cc1 [4f, (E)-4-(3-Fluorostyryl)-N,N-dimethylaniline] | 147 to 148 °C | – | repression of Wnt target genes at 10 μM ([1]; CRC cells): good activity
3 | COc1ccc(/C=C/c2ccccc2)cc1 [4b, (E)-4-Methoxystilbene] | 136 to 137 °C | – | –
4 | CN(C)c1ccc(/C=C/c2cc(F)cc(F)c2)cc1 [4u, (E)-4-(3,5-Difluorostyryl)-N,N-dimethylaniline] | 136 to 137 °C | – | –
5 | CN(C)c1ccc(/C=C/c2c(F)ccc(F)c2F)cc1 [4v, (E)-N,N-Dimethyl-4-(2,3,6-trifluorostyryl)aniline] | 91 to 92 °C | no significant improvements over compound 4r | repression of Wnt target genes at 10 μM ([1]; CRC cells): active
6 | CN(C)c1ccccc1/C=C/c1c(F)cccc1F [4p, (E)-2-(2,6-Difluorostyryl)-N,N-dimethylaniline] | – | not as active as compound 4r | –
7 | Cc1cc(O)c2c(c1)C(=O)c1cc(O)cc(O)c1C2=O [Emodin] | – | – | effect on Wnt signaling (Wnt signaling): no effect
8 | Oc1ccc(/C=C\c2cc(O)cc(O)c2)cc1 [cis- or (Z)-resveratrol, reference compound] | – | – | protein levels of c-Myc and Cyclin D1 ([1]; LS174 CRC cells): reduced by resveratrol but not its isomer
9 | CN(C)c1ccc(/C=C/c2c(F)cc(F)cc2F)cc1 [4w, (E)-N,N-Dimethyl-4-(2,4,6-trifluorostyryl)aniline] | 127 to 128 °C | no significant improvements over compound 4r | repression of Wnt target genes at 10 μM ([1]; CRC cells): active
10 | C[N+](C)([O-])c1ccc(/C=C/c2c(Cl)cccc2Cl)cc1 [4bb, (E)-4-(2,6-dichlorostyryl)-N,N-dimethylaniline oxide] | 80 to 82 °C | – | –
11 | CN(C)c1ccc(/C=C/c2ccccc2F)c2ccccc12 [4k, (E)-4-(2-Fluorostyryl)-N,N-dimethylnaphthalen-1-amine] | 56 to 58 °C | – | –
12 | CN(C)c1ccc(/C=C/c2c(Cl)cccc2Cl)cc1 [4y, (E)-4-(2,6-dichlorostyryl)-N,N-dimethylaniline] | 96 to 97 °C | – | –
13 | Fc1ccccc1/C=C/c1ccc(N(c2ccccc2)c2ccccc2)cc1 [4i, (E)-4-(2-Fluorostyryl)-N,N-diphenylaniline] | 114 to 115 °C | – | repression of Wnt target genes at 10 μM ([1]; CRC cells): inactive
14 | CN(C)c1ccc(/C=C/c2c(F)cccc2Cl)cc1 [4x, (E)-4-(2-chloro-6-fluorostyryl)-N,N-dimethylaniline] | 42 to 44 °C | – | –
15 | CN(C)c1ccc(/C=C/c2ccccc2F)cc1 [4e, (E)-4-(2-Fluorostyryl)-N,N-dimethylaniline] | 124 to 126 °C | best among all of the monofluoro-substituted compounds | CRC cell growth inhibition compared with other compounds (LS174 CRC cells; cell proliferation assay): significantly better inhibitor; repression of Wnt target genes at 10 μM ([1]; CRC cells): good activity
16 | CCN(CC)c1ccc(/C=C/c2ccccc2F)cc1 [4h, (E)-4-(2-Fluorostyryl)-N,N-diethylaniline] | 78 to 79 °C | not as potent as compound 4e | repression of Wnt target genes at 10 μM ([1]; CRC cells): active
17 | CN(C)c1cccc(/C=C/c2c(F)cccc2F)c1 [4q, (E)-3-(2,6-Difluorostyryl)-N,N-dimethylaniline] | 69 to 71 °C | not as active as compound 4r | –
18 | CN(C)c1ccc(/C=C/c2ccc(F)cc2)cc1 [4g, (E)-4-(4-Fluorostyryl)-N,N-dimethylaniline] | 197 to 198 °C | – | –
19 | CNc1ccc(C=Cc2c(Cl)cccc2Cl)cc1 [4ee, (E and Z)-4-(2,6-dichlorostyryl)-N-methylaniline] | – | – | liver cancer cell proliferation, effectiveness versus resveratrol and 4r (liver cancer cells): significantly more effective than resveratrol, as well as compound 4r; colon cancer cell proliferation, effectiveness versus resveratrol and 4r (LS174 CRC cells): significantly more effective than resveratrol, as well as compound 4r
20 | CCN(CC)c1ccc(/C=C/c2c(F)cccc2F)cc1 [4s, (E)-4-(2,6-Difluorostyryl)-N,N-diethylaniline] | 70 to 71 °C | slightly less active than compound 4r; also recorded: active Wnt inhibitor | –
21 | CN(C)c1ccc(/C=C/c2ccc(F)c(F)c2)cc1 [4t, (E)-4-(3,4-Difluorostyryl)-N,N-dimethylaniline] | 159 to 160 °C | – | –
22 | CN(C)c1ccc(/C=C/c2ccc(F)cc2F)cc1 [4n, (E)-4-(2,4-Difluorostyryl)-N,N-dimethylaniline] | 139 to 140 °C | – | –
23 | CN(C)c1ccc(/C=C/c2cc(F)ccc2F)cc1 [4o, (E)-4-(2,5-Difluorostyryl)-N,N-dimethylaniline] | 146 to 147 °C | more active than compound 4e | repression of Wnt target genes at 10 μM ([1]; CRC cells): repress Wnt target genes
24 | Nc1ccc(C=Cc2ccccc2)cc1 [4c, 4-aminostilbene, reference compound] | – | – | repression of Wnt target genes at 30 μM ([1]; 30 μM, CRC cells): represses Wnt target genes
25 | C[N+](C)([O-])c1ccc(/C=C/c2c(F)cccc2F)cc1 [4z, (E)-4-(2,6-difluorostyryl)-N,N-dimethylaniline oxide] | 100 to 103 °C | – | –
26 | C[N+](C)([O-])c1ccc(/C=C/c2c(F)cccc2Cl)cc1 [4aa, (E)-4-(2-chloro-6-fluorostyryl)-N,N-dimethylaniline oxide] | 82 to 84 °C | – | liver cancer cell proliferation, effectiveness versus resveratrol and 4r (liver cancer cells): significantly more effective than resveratrol, as well as compound 4r; colon cancer cell proliferation, effectiveness versus resveratrol and 4r (LS174 CRC cells): significantly more effective than resveratrol, as well as compound 4r
27 | CN(C)c1ccc(CCc2c(F)cccc2F)cc1 [5r, (E)-4-(2,6-Difluorophenethyl)-N,N-dimethylaniline] | – | the activity was lost | –
28 | CN(C)c1ccc(/C=C/c2cccc(F)c2F)cc1 [4m, (E)-4-(2,3-Difluorostyryl)-N,N-dimethylaniline] | 132 to 133 °C | more active than compound 4e | repression of Wnt target genes at 10 μM ([1]; CRC cells): repress Wnt target genes
